Measurements taken from PubChem BioAssay (NCI).
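Interpolation was linear, between the two tested concentrations surrounding the appropriate level; five concentrations were tested over 48 hours in 96-well plates. Here, GI50 denotes the concentration required for 50% inhibition of growth. TGI: total growth inhibition.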

Key:
Assay in all cases: NCI-60 cell line screen, 48 h
MDA-MB-435 = tested on: MDA-MB-435
SK-MEL-2 melanoma = tested on: SK-MEL-2 melanoma
SK-MEL-28 melanoma = tested on: SK-MEL-28 melanoma
NCI-H522 lung = tested on: NCI-H522 lung
UACC-62 melanoma = tested on: UACC-62 melanoma
U251 CNS = tested on: U251 CNS
SF-268 CNS = tested on: SF-268 CNS
NCI-H460 lung = tested on: NCI-H460 lung
SN12C renal = tested on: SN12C renal
UACC-257 melanoma = tested on: UACC-257 melanoma

Structure (SMILES) | GI50 (MDA-MB-435) | TGI (MDA-MB-435) | GI50 (SK-MEL-2 melanoma) | TGI (SK-MEL-2 melanoma) | GI50 (SK-MEL-28 melanoma) | TGI (SK-MEL-28 melanoma) | GI50 (NCI-H522 lung) | TGI (NCI-H522 lung) | GI50 (UACC-62 melanoma) | TGI (UACC-62 melanoma) | GI50 (U251 CNS) | TGI (U251 CNS) | GI50 (SF-268 CNS) | TGI (SF-268 CNS) | GI50 (NCI-H460 lung) | TGI (NCI-H460 lung) | GI50 (SN12C renal) | TGI (SN12C renal) | TGI (UACC-257 melanoma) | GI50 (UACC-257 melanoma)
CCCNc1nc(-c2ccc(OC)cc2)nc2ccccc12 | 14.5 µM | 29.2 µM | 35.2 µM | > 100 µM | 18.6 µM | 53.6 µM | 22.3 µM | > 100 µM | 15.4 µM | 35.5 µM | 16.7 µM | 37.8 µM | 16.3 µM | 38.8 µM | 10.5 µM | 44 µM | 20.2 µM | 46.1 µM | – | –
O=C1C(c2ccccc2)=C(c2ccccc2)C(c2ccccc2)/C1=C1\C(=O)C(c2ccccc2)=C(c2ccccc2)C1c1ccccc1 (configuration not stated) | – | – | – | > 100 µM | – | > 100 µM | – | > 100 µM | – | > 100 µM | – | > 100 µM | – | > 100 µM | – | > 100 µM | – | > 100 µM | > 100 µM | –
CC(CN(CP(=O)([O-])[O-])CP(=O)([O-])[O-])N(CP(=O)([O-])[O-])CP(=O)([O-])[O-].N[C@@H]1CCCC[C@@H]1N.[Pt+2] (configuration not stated) | – | – | > 100 µM | > 100 µM | > 100 µM | > 100 µM | > 100 µM | > 100 µM | > 100 µM | > 100 µM | > 100 µM | > 100 µM | > 100 µM | > 100 µM | > 100 µM | > 100 µM | > 100 µM | > 100 µM | > 100 µM | > 100 µM
O=S1(=O)CSc2ccc3ccccc3c2-c2c1ccc1ccccc21 | – | – | – | – | – | > 100 µM | – | > 100 µM | – | > 100 µM | – | > 100 µM | – | > 100 µM | – | > 100 µM | – | > 100 µM | > 100 µM | –
CC1=C(C)C(=O)C(C(C)C2=C(C)C(=O)C(C)=C(C)C2=O)=C(C)C1=O | 39.4 µM | > 100 µM | 33.8 µM | > 100 µM | – | – | 30.5 µM | > 100 µM | 19.3 µM | > 100 µM | 21.7 µM | > 100 µM | 18.7 µM | 49.7 µM | 26.7 µM | > 100 µM | 56 µM | > 100 µM | > 100 µM | 33.5 µM
CC(=O)O[C@H]1CC[C@@]2(C)C(=CC[C@@H]3C2CC[C@]2(C)Nc4oncc4CC32)C1 (some centres not stated) | – | – | – | > 100 µM | – | > 100 µM | – | – | – | 99 µM | – | > 100 µM | – | – | – | 48.8 µM | – | – | > 100 µM | –
CCOC(=O)C(=Cc1ccccc1Br)C(=O)OCC | – | 5.16 µM | – | 5.31 µM | – | 5.82 µM | – | 4.3 µM | – | 4.79 µM | – | – | – | 29.1 µM | – | > 100 µM | – | 15.6 µM | 14.7 µM | –
C=C1C(=O)O[C@H]2[C@H]1CC/C(Cn1cc(CCC)nn1)=C\CC[C@@]1(C)O[C@@H]21 | 10.4 µM | 24.9 µM | 16.3 µM | 34.5 µM | – | – | 3.06 µM | 10.7 µM | – | – | 14.1 µM | 27.7 µM | 13.7 µM | 28.4 µM | 21.2 µM | 41.5 µM | 12.1 µM | 29.4 µM | – | –
Cc1cc2c(=O)cc(-c3ccc(Cl)cc3)oc2c(C(=O)O)c1C | – | – | – | > 100 µM | – | > 100 µM | – | > 100 µM | – | > 100 µM | – | > 100 µM | – | > 100 µM | – | > 100 µM | – | > 100 µM | > 100 µM | –
N#CC(C#N)=C1NC(=O)C(c2ccccc2)C(=O)N1 (configuration not stated) | – | – | – | – | – | – | – | > 100 µM | – | > 100 µM | – | > 100 µM | – | > 100 µM | – | > 100 µM | – | > 100 µM | > 100 µM | –
Cc1ccc(/C=C2\CCOC2=O)cc1 | – | – | > 100 µM | > 100 µM | > 100 µM | > 100 µM | – | – | > 100 µM | > 100 µM | > 100 µM | > 100 µM | 60.2 µM | > 100 µM | > 100 µM | > 100 µM | > 100 µM | > 100 µM | > 100 µM | > 100 µM
CCOc1ccc(NC(=O)C2=C(C)NC(C)=C(C(=O)Nc3ccc(OCC)cc3)C2c2ccc([N+](=O)[O-])cc2)cc1 | – | – | – | 45.7 µM | – | > 100 µM | – | > 100 µM | – | – | – | > 100 µM | – | > 100 µM | – | > 100 µM | – | > 100 µM | > 100 µM | –
CC(=O)Nc1ccc(C(=O)N[C@@H]2C(=O)N3[C@@H]2SC(C)(C)[C@@H]3C(=O)O)cn1 | – | > 100 µM | – | > 100 µM | – | > 100 µM | – | – | – | > 100 µM | – | > 100 µM | – | > 100 µM | – | > 100 µM | – | > 100 µM | > 100 µM | –
Cn1cc(C(=O)C2CCCCC2)ccc1=O | – | – | – | > 100 µM | – | > 100 µM | – | > 100 µM | – | > 100 µM | – | > 100 µM | – | > 100 µM | – | > 100 µM | – | > 100 µM | – | –
Cc1cc(Cl)ccc1N1C(=O)C(=O)C(c2nc3ccccc3s2)C(=O)C1=O | – | – | – | > 100 µM | – | > 100 µM | – | > 100 µM | – | > 100 µM | – | > 100 µM | – | > 100 µM | – | > 100 µM | – | > 100 µM | > 100 µM | –
C[Si](C)(C)/C(Br)=C\CCN1C(=O)CCC1O (configuration not stated) | – | – | – | > 100 µM | – | > 100 µM | – | > 100 µM | – | > 100 µM | – | > 100 µM | – | > 100 µM | – | > 100 µM | – | > 100 µM | > 100 µM | –
COc1ccc(C2CC(c3cc(OC)c(OC)c(OC)c3)=NN2)cc1 (configuration not stated) | 2.96 µM | 20.9 µM | – | – | 38.7 µM | > 100 µM | 3.43 µM | 35.9 µM | 7.63 µM | > 100 µM | 4.52 µM | > 100 µM | 20 µM | > 100 µM | 3.47 µM | 30.1 µM | 31.4 µM | > 100 µM | > 100 µM | 43.4 µM
CC(C)(C)c1cc(C(O)(C(F)(F)F)C(F)(F)F)c2c(c1)C(C(F)(F)F)(C(F)(F)F)OC(c1ccccc1)(C(C)(C)C)N2 (configuration not stated) | – | – | – | 19.7 µM | – | 22.1 µM | – | 8.38 µM | – | 14.6 µM | – | 10.4 µM | – | – | – | 11.7 µM | – | 16.6 µM | 19.7 µM | –
NS(=O)(=O)c1ccc(-n2nc(-c3ccc(Cl)cc3)cc2C2=CC(=O)C=CC2=O)cc1 | 22.9 µM | 67.1 µM | 58 µM | > 100 µM | – | – | 31 µM | 87.2 µM | 14.2 µM | 34.1 µM | – | – | 24.6 µM | 50.4 µM | 24.3 µM | 57.4 µM | 19.7 µM | 36.5 µM | 42.9 µM | 19.9 µM
